Values quoted from earlier work in patent US20250241957A1, “INTRA-ERYTHROCYTE DEXAMETHASONE FOR TREATMENT OF ATAXIA-[…]” (priority 2024, published 2025).

System: participants with A-T
Conditions: betamethasone used for two years

- Adrenal suppression: documented in all participants
SMILES: C[C@H]1C[C@H]2[C@@H]3CCC4=CC(=O)C=C[C@]4(C)[C@@]3(F)[C@@H](O)C[C@]2(C)[C@@]1(O)C(=O)CO [betamethasone]
